Results: patent US20260234188A1, “CHEMOKINE-BINDING PEPTIDES” (Oxford University Innovation Limited, priority 2022, published 2026)
“Also recorded” adds a separate entry of the source.

System: panel of up to 42 human chemokines
Experiment: Phage-display next generation sequencing screen of overlapping hexadecapeptide libraries, chemokines displayed on streptavidin beads;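 note: chemokine listed when log2 fold enrichment exceeds 5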
Format: binding
Details: log2E greater than 5, chemokines named by first part of UniProt Entry Name
In short: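 Phage-display libraries of 55662 overlapping hexadecapeptides from tick and viral chemokine-binding proteins, human chemokines and chemokine receptors screened against up to 42 human chemokines, with hits found by next-generation sequencing. Peptides mapped to parent-protein position with log2 fold enrichment; regions of interest where cumulative residue log2 E exceeds the 95% upper CI of the protein median.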

Substance	Chemokines Bound
CR2340 (AYDLFIGIKIVYCFLW)	CCL15, CCL17, and CCL18, CCL19, and CCL20, CCL22, and CCL25, CCL28, and X3CL1, CXL10, and CXL11, SDF1, and CXL13, CXL14, and IL8
CR3161 (DFSAILLYIDDFSAYF)	CCL17, CCL18,; also recorded: X3CL1, CXL10,; also recorded: SDF1, CXL13,; also recorded: CXL14
CR2290 (AWFLPIMYSIICFVGL)	CCL20, CCL22, and CCL25, CCL28, and X3CL1, CXL10, and CXL11, SDF1, and CXL13, CXL14, and IL8
CR26536 (WGWVLGDFLCKLLNMI)	CCL1, CCL11,; also recorded: CCL17, CCL18,; also recorded: CCL20, CCL22,; also recorded: CCL28, CCL5,; also recorded: X3CL1, CXL10,; also recorded: SDF1, IL8
CR23915 (TVFLSIFYSVIFAIGL)	CCL17, CCL18,; also recorded: CCL19, CCL2,; also recorded: CCL20, CCL22,; also recorded: CCL25, CCL28,; also recorded: CCL8, X3CL1,; also recorded: CXL10, CXL11,; also recorded: SDF1, CXL13,; also recorded: CXL14, IL8
CR26513 (WGAAPVIMMTWFYAFF)	CCL11, CCL17, and CCL18, CCL19, and CCL20, CCL22, and CCL25, CCL28, and X3CL1, CXL10, and CXL11, CXL13, and IL8
CR23240 (TLPFWGISVAWHWVFG)	CCL17, CCL18,; also recorded: CCL20, X3CL1,; also recorded: CXL11
CR24900 (VIGFLVPLLAMSFCYL)	CCL15, CCL17,; also recorded: CCL18
CR27677 (YSAFLSGMTSLLLVLL)	CCL17, CCL18,; also recorded: CCL20, CCL25,; also recorded: CXL10, CXL14
CR4135 (EIYEYLFFFSFFFLAL)	CCL20, CCL25,; also recorded: CXL11, CXL13
CR23572 (TRFGVWLMSIVGTFLN)	CCL17, CCL18,; also recorded: CCL2, CCL20,; also recorded: CCL22, CCL25,; also recorded: X3CL1, IL8
CR24707 (VGALGNSLVILVYWYC)	CCL17, CCL18,; also recorded: CCL19, CCL20
CR5475 (FLFHLAVADLLLVFIL)	CCL20, CCL22,; also recorded: CCL28, CXL10,; also recorded: CXL11, SDF1,; also recorded: CXL14
CR26500 (WFLPIMYSIICFVGLL)	CCL28, SDF1,; also recorded: CXL14
CR5242 (FIGFFGSIFFITVISI)	CCL17, CCL18,; also recorded: CCL20, X3CL1,; also recorded: CXL13
CR24989 (VITFCLYVGQFLAYVR)	CCL17, CCL18,; also recorded: CCL19, CCL20,; also recorded: CCL25, X3CL1,; also recorded: CXL10, SDF1,; also recorded: CXL14
CR24107 (TYIILLLTWFAGLIFS)	CCL22, CCL25,; also recorded: CXL11
CR27050 (YDLFIGIKIVYCFLWG)	CCL1, CCL17,; also recorded: CCL19, CCL20,; also recorded: CCL22, X3CL1,; also recorded: CXL10, CXL11,; also recorded: SDF1, CXL13,; also recorded: CXL14, IL8
CR4802 (FCALVTLITSLFGSIF)	CCL11, CCL17,; also recorded: CCL18, CCL19,; also recorded: CCL20, CCL22,; also recorded: CCL25, CCL28,; also recorded: CCL8, X3CL1,; also recorded: CXL10, CXL11,; also recorded: SDF1, CXL13,; also recorded: CXL14, IL8
CR26001 (VTLTSLAVWGLSLLFA)	CCL11, CCL2,; also recorded: CCL28, SDF1
CR23379 (TNFDFMILNLSFADLF)	CCL17, CCL18,; also recorded: X3CL1
CR24594 (VFLLSLVGNSLVLWVL)	CCL22, X3CL1, and CXL11, CXL13, and IL8
CR25357 (VLTLKVILGFFLPFVV)	CCL1, CCL17,; also recorded: CCL18, CCL19,; also recorded: CCL28, CXL10,; also recorded: CXL11, SDF1,; also recorded: CXL13, CXL14
CR2439 (CALVTLITSLFGSIFK)	CCL17, CCL18, and CCL19, CCL20, and CXL10, SDF1, and CXL13, CXL14, and IL8
CR24367 (VCILVWLLAFCVSLPD)	CCL11, CCL17,; also recorded: CCL18, CCL19,; also recorded: CCL20, CCL22,; also recorded: CCL25, CCL28,; also recorded: CXL10, CXL11,; also recorded: SDF1, CXL13,; also recorded: CXL14, IL8
CR26547 (WHWVFGSFLAKMVSTL)	CCL1, X3CL1,; also recorded: CXL14
CR23950 (TVLATFKILICIVWGV)	CCL18, CCL19,; also recorded: CCL20, CCL25,; also recorded: SDF1, IL8
CR3716 (DVYLLNLAISDLLFVF)	CCL11, CCL2,; also recorded: CCL8, CXL11
CR5277 (FILYQFELFGFTLIFF)	CCL17, CCL22, and CCL25, CCL28, and CXL10, CXL11, and SDF1
CR23002 (TIWLVGFLLALPEILF)	CCL17, CCL18, and CCL19, CCL20, and CCL25, CCL28, and X3CL1, SDF1, and CXL13, CXL14, and IL8

Same assay, conditions: log2E greater than 5, chemokines named by first part of UniProt Entry Name, peptides binding complement C5a (control) excluded

Substance	Chemokines Bound
VP6154 (MKSVLYLYILFLSCII)	CCL1, X3CL1, and CXL10, CXL11, and IL8
VP485 (AMMLSLLIAGMSLMLG)	CCL11, CCL25, and CCL28, CCL5, and CXL11, CXL14, and IL8
EB630 (DKKVGLCLSTEYTDFS)	CXL10, SDF1,; also recorded: CXL14
LTDGTACYVVERKVWD [HD2313]	CCL19, CCL20,; also recorded: CCL28
CR6489 (FWAVDAVANWYFGNFL)	CCL17, CCL18, and CCL22, CCL28, and CXL10, CXL14, and IL8
CR5775 (FMIFAYTFIVKTLVQA)	CCL17, CCL18, and CCL28, X3CL1, and CXL11, SDF1, and CXL13, CXL14, and IL8
VP4071 (IKAESKGSELILLDPP)	CCL17, CCL20,; also recorded: CCL22
CR7815 (GVVTSVITWVVAVFAS)	CCL1, CCL15,; also recorded: CCL2, CCL20,; also recorded: CCL22, CCL25,; also recorded: CCL28, CCL8,; also recorded: CXL10, CXL13
CR7000 (GIFFIILLTIDRYLAV)	CCL17, X3CL1,; also recorded: CXL10
CR8251 (HNKTLSFISLLILSFL)	CCL2, X3CL1, and IL8
CR6269 (FTGMPPADEDYSPCML)	CCL11, CCL17,; also recorded: CCL18, CCL19,; also recorded: CCL20
CR7819 (GVWLMAIVGTFLNVLV)	CCL17, CCL18, and CCL2, CCL20, and CCL22, CXL11, and SDF1, CXL13, and IL8
EB3085 (SGLCLSTTYIDFSEYG)	CXL10, CXL11,; also recorded: SDF1, CXL14

Same assay, conditions: log2E greater than 5, chemokines named by first part of UniProt entry name, C5a (control) binders excluded

Substance	Chemokines Bound
CR11719 (LATFKILIAIVWGVMP)	CCL1, CCL18,; also recorded: CCL20, CCL22,; also recorded: CCL25, CCL28,; also recorded: CXL10, SDF1
CR13203 (LLIMLFSYGFTLRTLF)	CCL18, CCL22, and CCL28, X3CL1, and SDF1
CR13507 (LLTWLAGLIFSVPAAV)	CCL1, CCL11,; also recorded: CCL17, CCL18,; also recorded: CCL19, CCL2,; also recorded: CCL20, CCL22,; also recorded: CCL25, CCL28,; also recorded: X3CL1, CXL10,; also recorded: CXL11, SDF1,; also recorded: CXL14, IL8
CR21349: chemokine binding peptide of Table 5A used in FIG. 5 combinations (SNVTFTGLISAFSWFM)	CCL11, CCL2,; also recorded: CCL3, CCL4,; also recorded: CCL5, CCL8
CR11907: chemokine binding peptide of Table 5A used in FIG. 5 combinations (LDFILALVGNTLALWL)	CCL11, CCL18, and CCL2
CR15153 (LYSLLFLLGLLGNGAV)	CCL18, CCL22,; also recorded: CCL25
CR15670 (MMTWFYAFFYSTVQRA)	CCL18, CCL2, and CCL20, CCL25, and CCL28, CCL8, and X3CL1, CXL13, and IL8
CR2290 (AWFLPIMYSIICFVGL)	CCL1, CCL17,; also recorded: CCL18, CCL19,
CR11776 (LAVKIVFSFIWGVLPT)	CCL17, CCL18,; also recorded: CCL19, CCL20,; also recorded: CCL22, CCL25,; also recorded: CCL8, X3CL1,; also recorded: CXL10, CXL11,; also recorded: SDF1, CXL13,; also recorded: CXL14, IL8
CR18955 (RFRQYLKAFLAAVLGW)	CCL17, CCL18,; also recorded: CXL14
CK1408 (FSRCCFSFAEQEIPLR)	CCL1, CCL2,; also recorded: CCL8, CXL14
CK576 (CADPSESWVQEYVYDL)	CCL17, CCL5,; also recorded: CXL10
CR2051 (ATYMLLVLYYAMLPLM)	CCL20, CCL22,; also recorded: CCL28, X3CL1,; also recorded: CXL10, SDF1,; also recorded: CXL14, IL8
CR14585 (LTLKVILGFFLPFVVM)	CCL17, CCL18,; also recorded: CCL19, CCL20,; also recorded: CXL14
CK1445 (FVVDYYETSSLCSQPA)	CCL19, CCL2, and X3CL1, SDF1, and IL8
CR14086 (LQTVITFALYVGQFLA)	CCL15, CCL2,; also recorded: CCL28, X3CL1

Substance	Chemokines Bound
CR18189 (QHNLFFLLSLGIILFC)	CCL17, CCL18,; also recorded: CCL22, CCL25,; also recorded: X3CL1, CXL14
CR21236 (SMILESLFAALVTLIT)	CCL22, CXL10,; also recorded: CXL11, SDF1,; also recorded: CXL13, IL8
CR13605 (LMFMIFAYTFIVKTLV)	CCL17, CCL18,; also recorded: CCL20, CCL22,; also recorded: CXL10
CR13458 (LLSVLFTLYVSTLDFS)	CCL18, CCL2, and CCL20, CXL10, and CXL11, SDF1, and CXL13, CXL14, and IL8
CR22736 (TFGVVTSVITWLVAVF)	CCL1, CCL11, and CCL17, CCL18, and CCL2, CCL25, and CCL28, CCL8, and X3CL1, CXL10, and CXL11, SDF1, and CXL13, CXL14, and IL8
CK6066 (VCADPSESWVQEYVYD)	CCL19, CCL28,; also recorded: X3CL1, IL8
CR15930 (MVIWVLAFFLSSPSLV)	CCL28, CXL10,; also recorded: CXL14
CR11295 (KVLWALQYIGLGFFAA)	CCL17, CCL18,; also recorded: CCL2, CXL10,; also recorded: SDF1, CXL14
CR11604 (LALSISLLAEVLMFLF)	CCL17, CCL18,; also recorded: CCL20, CCL25,; also recorded: CXL10, CXL13,; also recorded: CXL14, IL8
CR14976 (LVTMAVWVASILSSIL)	CCL2, SDF1,; also recorded: CXL13
CR14316 (LSISLLAEVLMFLFPN)	CCL17, CCL18,; also recorded: CCL19, CCL2,; also recorded: CCL20, CCL22,; also recorded: CCL25, X3CL1,; also recorded: CXL14
CR1802 (ASMILESLFAALVTLI)	CCL17, CCL18,; also recorded: CCL2, CCL20,; also recorded: CCL22, CCL25,; also recorded: CCL28, CXL10
CR1124 (ALIQMLEICIGFVVPF)	CCL18, CCL19,; also recorded: CCL20
CR17907 (PYHWGWVLGDFLAKLL)	CCL17, CCL18,; also recorded: CCL25
CK1982 (IFKTIVAKEICADPKQ)	CCL1, CCL22,; also recorded: CCL5, X3CL1,; also recorded: CXL10, CXL13
CR10681 (KIIFSYVVVFLVAWLP)	CCL25, CCL28, and SDF1
